In PMC3525952 (Planta medica, 2008):
In brackets after ≈: the same amount, converted by molar mass. Where two headings read alike, the source gives them in different places.

How the values were obtained:
AChE EC 3.1.1.7 = AChE EC 3.1.1.7 (Homo sapiens, UniProt P22303); experiment: Spectrophotometric AChE inhibition assay; type: biochemical
CB2 receptor = CB2 receptor (Homo sapiens, UniProt P34972); experiment: Radioligand
[1] = Cytotoxicity on HeLa cell monolayers; type: cell-based; conditions: human, confluent HeLa cell monolayers
CB1 receptor = CB1 receptor (Homo sapiens, UniProt P21554); experiment: Radioligand
CB1 receptor, sequence (P21554 whole entry): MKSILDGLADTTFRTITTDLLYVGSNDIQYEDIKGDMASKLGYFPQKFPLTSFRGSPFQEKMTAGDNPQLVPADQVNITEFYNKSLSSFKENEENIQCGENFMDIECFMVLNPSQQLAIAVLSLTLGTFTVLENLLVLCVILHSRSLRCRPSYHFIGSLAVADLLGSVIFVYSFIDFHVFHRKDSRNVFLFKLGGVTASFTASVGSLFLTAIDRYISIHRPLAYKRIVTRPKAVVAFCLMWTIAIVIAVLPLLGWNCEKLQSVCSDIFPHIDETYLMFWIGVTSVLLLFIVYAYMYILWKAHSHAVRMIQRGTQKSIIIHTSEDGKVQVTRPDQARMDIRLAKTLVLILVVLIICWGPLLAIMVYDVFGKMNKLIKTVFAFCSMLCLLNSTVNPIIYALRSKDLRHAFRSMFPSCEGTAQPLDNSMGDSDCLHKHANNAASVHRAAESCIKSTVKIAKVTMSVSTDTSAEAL

rhinovirus 2 (HRV-2) = experiment: Cytopathic effect; type: cell-based, human rhinovirus; conditions: for IC50: read-out: HRV (experimental result, activity class); for antiviral activity against HRV-2 (in words): HeLa cells, non-cytotoxic concentrations
HeLa cell monolayers = experiment: Cytotoxicity on HeLa cell monolayers; type: cell-based; conditions: HeLa cells; for CC50: 72 h incubation, two independent tests
[2] = AChE (experimental result, activity class), Table 5 overview
[3] = AChE IC50 ± SD, in vitro, modified Ellman's method, 96-well microplate, n = 4
[4] = CB2 (experimental result, activity class), Table 5 overview
[5] = hCB2 Ki ± SD, displacement of [3H]CP-55,940, Cheng-Prusoff
[6] = read-out: CB2 (experimental result, activity class), Table 5 overview
[7] = read-out: hCB2 Ki ± SD, displacement of [3H]CP-55,940, Cheng-Prusoff
[8] = read-out: AChE (experimental result, activity class), Table 5 overview

CB2 receptor, sequence (P34972 whole entry): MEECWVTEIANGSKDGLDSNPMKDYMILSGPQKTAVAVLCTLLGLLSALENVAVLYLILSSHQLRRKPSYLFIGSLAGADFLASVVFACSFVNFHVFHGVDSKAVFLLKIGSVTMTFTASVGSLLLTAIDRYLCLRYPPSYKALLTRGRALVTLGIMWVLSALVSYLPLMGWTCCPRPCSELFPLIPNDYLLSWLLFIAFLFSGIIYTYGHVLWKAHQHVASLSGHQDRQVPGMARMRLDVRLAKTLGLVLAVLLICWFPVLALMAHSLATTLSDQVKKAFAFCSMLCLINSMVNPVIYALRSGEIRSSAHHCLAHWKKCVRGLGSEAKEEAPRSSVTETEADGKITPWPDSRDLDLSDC
AChE EC 3.1.1.7, sequence (P22303 32-614): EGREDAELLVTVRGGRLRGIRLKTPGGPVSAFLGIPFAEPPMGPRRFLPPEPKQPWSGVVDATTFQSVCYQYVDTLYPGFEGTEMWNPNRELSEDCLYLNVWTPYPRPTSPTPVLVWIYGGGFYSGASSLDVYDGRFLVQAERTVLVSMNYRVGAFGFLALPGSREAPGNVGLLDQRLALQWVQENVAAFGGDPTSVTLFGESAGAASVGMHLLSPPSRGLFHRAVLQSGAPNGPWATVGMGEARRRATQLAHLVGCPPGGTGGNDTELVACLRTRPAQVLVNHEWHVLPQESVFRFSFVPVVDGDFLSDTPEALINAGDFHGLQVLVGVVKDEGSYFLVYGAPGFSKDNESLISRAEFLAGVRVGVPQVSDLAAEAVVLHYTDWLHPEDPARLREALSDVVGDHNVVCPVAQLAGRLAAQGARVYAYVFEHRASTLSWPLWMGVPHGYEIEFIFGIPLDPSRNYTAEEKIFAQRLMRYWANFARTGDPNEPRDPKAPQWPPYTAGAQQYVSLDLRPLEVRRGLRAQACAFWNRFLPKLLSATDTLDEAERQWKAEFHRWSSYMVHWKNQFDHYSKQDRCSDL

COc1c2occc2cc2ccc(=O)oc12 [Compound 7, 8-methoxy psoralene]
IC50 (AChE EC 3.1.1.7; [2]): > 500 µM | IC50 (AChE EC 3.1.1.7; [3]): > 500 µM

COc1cc2c(c(O)c1OC)c(=O)c1ccccc1n2C [Compound 1, arborinine]
Ki (CB2 receptor; [4]): > 100 µM | Ki (CB2 receptor; [5]): > 100 µM | AChE inhibiting activity (in words) (AChE EC 3.1.1.7): strongest AChE inhibiting activity | IC50 (AChE EC 3.1.1.7; [2]): < 50 µM | IC50 (AChE EC 3.1.1.7; [3]): 34.7 ± 7.1 µM | CC50 at 72 h [1]: > 50 µg/mL | Ki (CB1 receptor): > 100 µM | IC50 (rhinovirus 2 (HRV-2); Enterovirus, HRV2, HeLa): < 10 µM | antiviral activity against HRV-2 (in words) (rhinovirus 2 (HRV-2)): most active antiviral constituents

CCCCCc1cc(O)c2c(c1)OC(C)(C)c1ccc(C)cc1-2 [Cannabinol, reference compound]
Ki (CB2 receptor; [5]): 0.12 ± 0.01 µM | Ki (CB1 receptor): 0.42 ± 0.13 µM

C=CC(C)(C)c1cc2cc3c(cc2oc1=O)OC(C(C)(C)OC(C)=O)C3 (centres unmarked) [Compound 3, rutamarin]
Ki (CB2 receptor; [4]): < 10 µM | Ki (CB2 receptor; CB2 Ki, displacement of [3H]CP-55,940): 7.41 µM | Ki (CB2 receptor; [5]): 7.4 ± 0.6 µM | binding affinity to the CB receptors (in words) (CB2 receptor; radioligand displacement assay): selective affinity to the CB2 receptor | IC50 (AChE EC 3.1.1.7; [2]): > 500 µM | IC50 (AChE EC 3.1.1.7; [3]): > 500 µM | cytotoxicity (in words) (HeLa cell monolayers): pronounced cytotoxicity | CC50 at 72 h [1]: 0.9 µg/mL (≈ 2.53 µM) | Ki (CB1 receptor): > 100 µM | HRV (experimental result, activity class) (rhinovirus 2 (HRV-2); Table 5 overview): cytotoxic

COc1c(C[C@@H](O)C(C)(C)O)c(=O)n(C)c2ccccc12 [Compound 10, (−)-edulinine]
Ki (CB2 receptor; [6]): > 100 µM | Ki (CB2 receptor; [7]): > 100 µM | IC50 (AChE EC 3.1.1.7; [8]): > 500 µM

COc1c2ccoc2cc2oc(=O)ccc12 [Compound 6, bergapten]
IC50 (AChE EC 3.1.1.7; [2]): > 500 µM | IC50 (AChE EC 3.1.1.7; [3]): > 500 µM

COc1cc2ccc(=O)oc2c(OC)c1OC [Compound 13, 6,7,8-trimethoxycoumarin]
AChE inhibiting activity (in words) (AChE EC 3.1.1.7): Modest effects | IC50 (AChE EC 3.1.1.7; [2]): 200 to 500 µM | IC50 (AChE EC 3.1.1.7; [3]): 396 ± 68.5 µM | CC50 at 72 h [1]: > 50 µg/mL | IC50 (rhinovirus 2 (HRV-2); Enterovirus, HRV2, HeLa): 10 to 20 µM | antiviral activity against HRV-2 (in words) (rhinovirus 2 (HRV-2)): most active antiviral constituents

COC(=O)C1OC1c1cc(OC)c(O)c(OC)c1 (centres unmarked) [Compound 15, Methyl 3-(4-hydroxy-3,5-dimethoxyphenyl)oxirane-2-carboxylate]
IC50 (AChE EC 3.1.1.7; [3]): > 500 µM | CC50 at 72 h [1]: > 50 µg/mL

COC(=O)CCc1cc2ccoc2c(OC)c1O [Compound 16, Methyl 3-(6-hydroxy-7-methoxybenzofuran-5-yl)propanoate]
IC50 (AChE EC 3.1.1.7; [3]): > 500 µM | IC50 (AChE EC 3.1.1.7; [8]): > 500 µM | CC50 at 72 h [1]: > 50 µg/mL | IC50 (rhinovirus 2 (HRV-2); Enterovirus, HRV2, HeLa): 20 to 100 µM | antiviral activity against HRV-2 (in words) (rhinovirus 2 (HRV-2)): Weak, but significant and dose-dependent antiviral activities

O=c1cc(-c2ccc3c(c2)OCO3)[nH]c2ccccc12 [Compound 11, norgraveoline]
AChE inhibiting activity (in words) (AChE EC 3.1.1.7): Modest effects | IC50 (AChE EC 3.1.1.7; [8]): 50 to 200 µM | CC50 (HeLa cell monolayers): 32.2 µg/mL (≈ 121 µM) | IC50 (rhinovirus 2 (HRV-2); Table 5 overview): > 100 µM

CC(C)=CCOc1c2ccoc2cc2oc(=O)ccc12 [Compound 4, isoimperatorine]
IC50 (AChE EC 3.1.1.7; [2]): > 500 µM | IC50 (AChE EC 3.1.1.7; [3]): > 500 µM

COc1cc2cc(Oc3ccc4ccc(=O)oc4c3)c(=O)oc2cc1OC [Compound 2, daphnoretin methyl ether]
IC50 (AChE EC 3.1.1.7; [8]): > 500 µM | CC50 (HeLa cell monolayers): > 50 µg/mL | antiviral activity against HRV-2 (in words) (rhinovirus 2 (HRV-2)): Weak, but significant and dose-dependent antiviral activities | IC50 (rhinovirus 2 (HRV-2); Table 5 overview): 20 to 100 µM

isoplatydesmin [Compound 9]
Ki (CB2 receptor; [7]): > 100 µM | AChE inhibiting activity (in words) (AChE EC 3.1.1.7): Modest effects

O=c1ccc2cc3ccoc3cc2o1 [Compound 5, psoralen]
IC50 (AChE EC 3.1.1.7; [2]): > 500 µM | IC50 (AChE EC 3.1.1.7; [3]): > 500 µM

COc1ccc2ccc(=O)oc2c1 [Compound 12, 7-methoxycoumarin]
IC50 (AChE EC 3.1.1.7; [2]): > 500 µM | IC50 (AChE EC 3.1.1.7; [3]): > 500 µM

Cn1c2c(c(=O)c3ccccc31)CC(O)C(C)(C)O2 (centres unmarked) [Compound 8, S-ribalinine]
Ki (CB2 receptor; [6]): > 100 µM | Ki (CB2 receptor; [7]): > 100 µM | IC50 (AChE EC 3.1.1.7; [8]): > 500 µM | CC50 (HeLa cell monolayers): > 50 µg/mL | antiviral activity against HRV-2 (in words) (rhinovirus 2 (HRV-2)): Weak, but significant and dose-dependent antiviral activities | IC50 (rhinovirus 2 (HRV-2); Table 5 overview): 20 to 100 µM

COC(=O)CC(O)c1cc(OC)c(O)c(OC)c1 (centres unmarked) [Compound 14, Methyl 3-hydroxy-3-(4-hydroxy-3,5-dimethoxyphenyl)propanoate]
IC50 (AChE EC 3.1.1.7; [3]): > 500 µM | IC50 (AChE EC 3.1.1.7; [8]): > 500 µM | CC50 at 72 h [1]: > 50 µg/mL | IC50 (rhinovirus 2 (HRV-2); Enterovirus, HRV2, HeLa): > 100 µM

Cc1cc(CCCOc2c(C)cc(-c3noc(C(F)(F)F)n3)cc2C)on1 [Pleconaril, reference compound]
CC50 at 72 h [1]: 12.6 µg/mL (≈ 33 µM)
